Consider 1 compound from patent US12138232B2, “Compounds for treating coronavirus infection” (priority 2020, dated 2024).

The structures appear in SMILES notation.

Series [1] has as its target T1, 3CL protease of SARS-coronavirus 2 (Severe acute respiratory syndrome coronavirus 2, UniProt P0DTD1).
T1 construct: purchased BPS 79955-1
The series is described as follows: 3CL protease fluorescent assay based on commercial kit (BPS cat. 79955-1). The series is classed as biochemical. Particulars: for Activity (RFU/minute): mean ± standard deviation, 0 μM: 743.7 ± 20.6. The procedure:
Inhibition of the activity of 3CL protease of SARS-coronavirus 2 (the coronavirus associated with COVID-19) was determined by an assay based on commercial kit (BPS cat. 79955-1). […] The reaction was initiated by addition of 50 μl of 50 μM kit substrate (25 μM final concentration), and then fluorescence was monitored (at 340 nm excitation wavelength, 510 nm emission wavelength) using a CLARIOstar® Plus plate reader (BMG Labtech). The 3CL protease activity was quantified as relative fluorescent units (RFU) per minute.

For series [2] the following is noted: based on literature reports; cited from earlier work.

Take `CC(C)=CCC(O)C1=CC(=O)c2c(O)ccc(O)c2C1=O` (stereo not drawn) [Shikonin, 5,8-dihydroxy-2-(1-hydroxy-4-methylpent-3-en-1-yl)naphthalene-1,4-dione]: the “Activity (RFU/minute)” value in series [1] (0.1 μM shikonin) is given as 653.8 ± 28.1 RFU/minute; in series [1] (1 μM shikonin), 680.1 ± 34.3 RFU/minute; in series [1] (10 μM shikonin), 425.0 ± 7.8 RFU/minute; in series [1] (100 μM shikonin), 2.9 ± 18.4 RFU/minute. Further, the “inhibition of 3CL protease” value in series [1] (100 μM shikonin) is recorded as “almost complete inhibition”. Moreover, the “dosages at which toxicity is not expected” value in series [2] is given as “less than 8 grams per day”.
